# Data from patent publication US20080124718A1, “METHODS OF DIAGNOSING, PREDICTING THERAPEUTIC EFFICACY AND SCREENING FOR NEW THERAPEUTIC AGENTS FOR LEUKEMIA” (Panacea Pharmaceuticals, Inc., priority 2006, published 2008).
# Structures can show the parent of a compound that is named as a salt.
# Legend:
# [1] = tested on: human aspartyl (asparaginyl) β-hydroxylase (HAAH) mRNA expression; test: HAAH mRNA expression (qRT-PCR) in patient leukocytes cultured with or without imatinib; assay type: cell-based; settings: 1 μM imatinib, 24 hours, vs untreated cells
# Description: This assay procedure allows the quantitative comparison of test RNA to a standard curve using single tube TaqMan® reactions.
# Analyze as described in Perkin Elmer sequence detection system manual. A standard amplification curve of ASPH-B was obtained previously, to which unknown samples are compared to obtain the number of copies of HAAH mRNA in the sample.
# Patient leukocytes were isolated from patient blood samples and grown in culture in the presence or absence of imatinib mesylate. After overnight incubation, qRT-PCR was used to determine human aspartyl (asparaginyl) β-hydroxylase (HAAH) mRNA expression in both treated and untreated cells. Percentage decrease in mRNA expression level is determined by comparing expression levels in treated vs. non-treated leukocytes from each individual patient.
# […]. This percentage change is consistent with a prediction of sensitivity to imatinib mesylate, based on numerous studies done by the present inventors. […].
# [2] = tested on: gastrointestinal stromal tumor (GIST) cells, which express an activating c-kit mutation; settings: in vitro; cited from earlier work
structure (smiles),measurement,setting,value
"Cc1ccc(NC(=O)c2ccc(CN3CCN(C)CC3)cc2)cc1Nc1nccc(-c2cccnc2)n1 [imatinib, Imatinib mesylate]",decrease in HAAH expression after culture in the presence of imatinib,[1]; leukocytes of 27 CML patients (later responders),30-75%
same,reduction in HAAH transcript levels after culture in the presence of imatinib,[1]; leukocytes of the 12 other CML patients (non-responders),< 25%
same,apoptosis,[2],induces apoptosis
same,proliferation,[2],inhibits proliferation
